Patent US20250027127A1, “C[…] BACTERIA” (priority 2021, published 2025)

Legend:
[1] = room temperature
Clz9 = test: In vitro assays with Clz9 wild type and variants; type: biochemical, Streptomyces sp. CNH-287; conditions: 12 hours, 37° C., pH 7.5
Experimental: (§1) The in vitro assays were performed following a modified procedure that was previously reported.^1 Assays (0.1 mL) contained 100 mM potassium phosphate buffer pH 7.5, 0.1 mg/mL^−1 catalase, 10 μL DMSO, 1 μL of a 20 mM stock solution of substrate and were initiated by addition of 20 μM wild type Clz9 or Tcz9 or their respective variants, unless otherwise altered to investigate the thermal and solvent effects on enzyme activity or product stability during time course experiments. Assays were allowed to incubate for 12 hat 37° C. before quenching with 150 μL acetonitrile. Assays were then centrifuged at 14000×g for 30 minutes and passed through a […] filter before injecting 50 μL of the solution for LC-MS analysis at a flow rate of 0.75 mL/min with a mobile phase combination of water+0.1% formic acid (A) and acetonitrile+0.1% formic acid (B) using a gradient as follows: 50% (B), 0 to 2 minutes; 50 to 100% (B), 2 to 10 min; 100% (B), 10 to 17 min; 100% to 50% (B), 17 to 18 min; 50% (B), 18 to 20 minutes.

Tcz9 = test: In vitro assays with Tcz9 wild type and variants; type: biochemical, Actinomycete sp. AJS-327; conditions: 12 hours, 37° C., pH 7.5
Experimental: as §1

Tcz9 T405Y = type: cell-based, Actinomycete sp. AJS-327; conditions: I mM substrate, IL culture, 48 hours
[2] = tested on: daurichromenic acid (DCA) synthase; conditions: cited from earlier work

Compound | stability in aqueous solutions [1] | activity with Tcz9 T124F (Tcz9) | activity with the Clz9 enzymes (wild type and three variants) (Clz9) | activity with the Tcz9 enzymes (wild type and three variants) (Tcz9) | also measured
O=C1C=C2C(=C(O)/C1=c1\ccc3cc(Cl)c(Cl)n13)C(=O)n1c2cc(Cl)c1Cl [compound 6] | unexpectedly stable | – | – | – | –
O=C1C=C2C(=C(O)/C1=c1/ccc3cc(Cl)c(Cl)n13)C(=O)n1c2cc(Cl)c1Cl [compound 7] | unexpectedly stable | – | – | – | –
CCCCCc1cc(O)c(C/C=C(\C)CCC=C(C)C)c(O)c1C(=O)O [compound 12a, cannabigerolic acid] | – | abolished activity | – | – | activity with wild type Clz9 (Clz9; 5 mol %): showed activity; activity with Clz9 F156T (Clz9): nearly consumed all; activity with Clz9 T438Y (Clz9): increased conversion; activity with wild type Tcz9 (Tcz9; 5 mol %): showed activity; activity with Tcz9 E368N (Tcz9): consumed all; activity with Tcz9 T405Y (Tcz9): increased conversion; conversion of substrate to products 15a and 17a (Tcz9 T405Y): approximately 80%; activity with DCA synthase [2]: no activity
CC(C)=CCC/C(C)=C/Cc1c(O)cc(C)c(C(=O)O)c1O [compound 12c, cannabigerorcinic acid] | – | – | slightly different activity profile than 12b and 12a | slightly different activity profile than 12b and 12a | –
CC(C)=CCC/C(C)=C/CC/C(C)=C/Cc1c(O)cc(C)c(C(=O)O)c1O [compound 19, grifolic acid] | – | completely abolished activity | no activity | three of the four Tcz9 enzymes fully consumed | –
